Results taken from patent publication US5504116A (Research Foundation of State University of New York, priority 1994, dated 1996).
Entries after “also recorded” stand apart in the source; their conditions may differ.

Tests used:
preterm labor = conditions: cited from earlier work
[1] = target: T1, voltage-gated calcium channel (ICa) of uterine myocytes (Rattus norvegicus, UniProt P22002); conditions: 2 μM nisoldipine; cited from earlier work
T1 construct: Individual myocytes were freshly isolated from 14 to 21-day pregnant uteri; endogenous in cells; host or cells: freshly dissociated longitudinal myometrial myocytes of 14 to 21-day pregnant Sprague-Dawley rats

[2] = target: T1, voltage-gated calcium channel (ICa) of uterine myocytes; experiment: whole-cell patch clamp, inward calcium current (ICa) of freshly dissociated pregnant rat uterine myocytes; assay type: cell-based
From the text: Holding potential, -80 mV; depolarized by 35 ms steps from -40 mV in 10 mV increments to 30 mV. […] Traces shown represent inward currents in response to applied voltage commands, outward K^+ currents having been blocked by the use of Cs^+ -filled electrode. […] (E) Current-voltage (I--V) relations of INa in panels (A--D). Symbols correspond to those under current traces. (F) I--V relations of ICa.
Hollow symbols for I'Ca /ICa in same myocytes used for I'Na /INa values. […] P=I'Na /INa.
All experiments in this study were performed under institutional guidelines for the care and use of laboratory animals (approval #92-055). Rats (Sprague-Dawley) were mated individually in the inventors' laboratory, and the duration of gestation was timed from the morning of the first discovery of cervical plugs. […] Individual myocytes were freshly isolated from 14 to 21-day pregnant uteri. Details of the methods of isolating the myocytes in a near-physiological condition, and associated patch-clamping can be found in other publications^7,15. Briefly, strips of isolated longitudinal myometrium were incubated in collagenase, and then subjected to mild mechanical disruption, until individual myocytes in desired amounts were obtained. For the work described herein, such single freshly dissociated myocytes were studied in the whole-cell configuration of patch-clamping^9.
The bath solution in which the individual myocytes were studied contained (in mM): NaCl, 135; KCl, 5.4; MgCl2, 1; CaCl2, 3; HEPES, 10; and glucose 5. […] The pipette solution contained (in mM): CsCl, 120; EGTA, 1; Na2 ATP, 2; HEPES, 10; K-pyruvate, 5; K-oxaloacetate, 5; and K-succinate, 5. All solutions were adjusted to pH 7.3; all experiments were done at room temperature of ca. 22° C. In the whole-cell mode of recording, rupture of the cell membrane allows access of the pipette solution to the cell interior. The reason for using CsCl rather than KCl is that the Cs^+ effectively blocks outward K^+ currents, and allows the inward currents to be isolated for study. […] The basic properties of the voltage-gated sodium and calcium channels are described in detail in Yoshino et al^7.
The inward currents have been isolated by using a pipette solution containing 120 mM Cs^+.

[3] = tested on: K+ channels (outward potassium currents) of uterine myocytes; experiment: whole-cell patch clamp, outward potassium currents of late-pregnant rat uterine myocytes; assay type: cell-based
pregnant rats = experiment: effect on the duration of pregnancy in rats (intramuscular injections); assay type: in vivo, rat; conditions: for term (duration of gestation): control 22.33±0.16 days, p <0.01
fetuses and newborn rats = conditions: rat, in vivo
From the text: To avoid possible post-term complications, it was sacrificed.

[4] = dosages used in continuous epidural anesthesia for labor; cited from earlier work

T1 sequence (P22002 whole entry): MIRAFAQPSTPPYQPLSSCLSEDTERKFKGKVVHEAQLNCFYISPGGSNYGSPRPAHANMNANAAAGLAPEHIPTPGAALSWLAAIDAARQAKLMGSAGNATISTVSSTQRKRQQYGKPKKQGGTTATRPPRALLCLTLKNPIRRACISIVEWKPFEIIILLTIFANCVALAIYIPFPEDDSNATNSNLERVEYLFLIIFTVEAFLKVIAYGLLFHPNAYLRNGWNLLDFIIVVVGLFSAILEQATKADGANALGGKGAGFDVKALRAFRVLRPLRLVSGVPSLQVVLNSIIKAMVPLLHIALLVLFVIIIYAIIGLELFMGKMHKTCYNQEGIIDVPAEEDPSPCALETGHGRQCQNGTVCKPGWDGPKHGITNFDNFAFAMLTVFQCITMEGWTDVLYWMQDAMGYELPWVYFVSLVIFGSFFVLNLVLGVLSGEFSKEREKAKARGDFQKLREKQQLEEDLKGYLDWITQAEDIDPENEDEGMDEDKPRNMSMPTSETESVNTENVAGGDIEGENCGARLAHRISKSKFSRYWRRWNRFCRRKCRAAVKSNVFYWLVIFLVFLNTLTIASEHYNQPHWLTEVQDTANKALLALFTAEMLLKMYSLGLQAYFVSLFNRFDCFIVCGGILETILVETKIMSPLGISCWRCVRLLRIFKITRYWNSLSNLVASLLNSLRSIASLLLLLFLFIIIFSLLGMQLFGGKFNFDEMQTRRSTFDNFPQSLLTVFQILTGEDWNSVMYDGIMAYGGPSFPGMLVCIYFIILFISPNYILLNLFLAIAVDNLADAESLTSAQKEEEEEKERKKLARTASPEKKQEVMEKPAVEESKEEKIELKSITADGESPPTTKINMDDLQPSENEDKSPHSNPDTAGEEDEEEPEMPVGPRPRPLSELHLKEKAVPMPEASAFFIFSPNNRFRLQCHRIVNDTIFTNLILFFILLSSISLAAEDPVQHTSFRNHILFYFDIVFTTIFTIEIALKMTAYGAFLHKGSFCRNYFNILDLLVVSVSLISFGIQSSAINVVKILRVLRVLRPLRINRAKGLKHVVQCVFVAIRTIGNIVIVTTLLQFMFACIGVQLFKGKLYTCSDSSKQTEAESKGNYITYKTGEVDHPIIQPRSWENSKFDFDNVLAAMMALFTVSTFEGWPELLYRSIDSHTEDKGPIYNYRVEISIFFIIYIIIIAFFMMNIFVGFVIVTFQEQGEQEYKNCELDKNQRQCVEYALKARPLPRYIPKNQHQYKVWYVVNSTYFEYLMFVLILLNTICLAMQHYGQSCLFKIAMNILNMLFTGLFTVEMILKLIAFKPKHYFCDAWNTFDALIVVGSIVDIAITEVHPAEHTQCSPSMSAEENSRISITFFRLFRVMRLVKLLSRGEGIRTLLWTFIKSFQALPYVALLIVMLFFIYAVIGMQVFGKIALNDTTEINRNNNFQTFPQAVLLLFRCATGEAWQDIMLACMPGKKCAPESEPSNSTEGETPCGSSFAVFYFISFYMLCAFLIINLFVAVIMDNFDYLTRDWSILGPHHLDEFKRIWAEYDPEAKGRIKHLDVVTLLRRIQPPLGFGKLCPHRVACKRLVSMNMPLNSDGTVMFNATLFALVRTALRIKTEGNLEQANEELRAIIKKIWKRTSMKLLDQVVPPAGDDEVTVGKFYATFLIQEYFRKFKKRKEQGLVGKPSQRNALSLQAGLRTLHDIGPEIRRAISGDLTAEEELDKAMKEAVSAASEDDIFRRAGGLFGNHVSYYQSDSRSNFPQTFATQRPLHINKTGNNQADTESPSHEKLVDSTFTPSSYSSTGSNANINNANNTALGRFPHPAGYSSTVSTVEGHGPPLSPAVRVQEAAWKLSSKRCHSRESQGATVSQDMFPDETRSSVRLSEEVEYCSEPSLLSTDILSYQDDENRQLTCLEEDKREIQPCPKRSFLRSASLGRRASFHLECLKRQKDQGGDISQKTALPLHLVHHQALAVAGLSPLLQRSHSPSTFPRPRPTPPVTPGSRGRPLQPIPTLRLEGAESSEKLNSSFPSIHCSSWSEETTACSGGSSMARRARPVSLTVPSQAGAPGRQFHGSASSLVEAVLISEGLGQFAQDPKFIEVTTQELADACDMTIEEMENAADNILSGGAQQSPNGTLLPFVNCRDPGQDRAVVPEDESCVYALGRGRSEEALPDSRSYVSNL
T1 sequence (P54290 25-944 partner limits assumed): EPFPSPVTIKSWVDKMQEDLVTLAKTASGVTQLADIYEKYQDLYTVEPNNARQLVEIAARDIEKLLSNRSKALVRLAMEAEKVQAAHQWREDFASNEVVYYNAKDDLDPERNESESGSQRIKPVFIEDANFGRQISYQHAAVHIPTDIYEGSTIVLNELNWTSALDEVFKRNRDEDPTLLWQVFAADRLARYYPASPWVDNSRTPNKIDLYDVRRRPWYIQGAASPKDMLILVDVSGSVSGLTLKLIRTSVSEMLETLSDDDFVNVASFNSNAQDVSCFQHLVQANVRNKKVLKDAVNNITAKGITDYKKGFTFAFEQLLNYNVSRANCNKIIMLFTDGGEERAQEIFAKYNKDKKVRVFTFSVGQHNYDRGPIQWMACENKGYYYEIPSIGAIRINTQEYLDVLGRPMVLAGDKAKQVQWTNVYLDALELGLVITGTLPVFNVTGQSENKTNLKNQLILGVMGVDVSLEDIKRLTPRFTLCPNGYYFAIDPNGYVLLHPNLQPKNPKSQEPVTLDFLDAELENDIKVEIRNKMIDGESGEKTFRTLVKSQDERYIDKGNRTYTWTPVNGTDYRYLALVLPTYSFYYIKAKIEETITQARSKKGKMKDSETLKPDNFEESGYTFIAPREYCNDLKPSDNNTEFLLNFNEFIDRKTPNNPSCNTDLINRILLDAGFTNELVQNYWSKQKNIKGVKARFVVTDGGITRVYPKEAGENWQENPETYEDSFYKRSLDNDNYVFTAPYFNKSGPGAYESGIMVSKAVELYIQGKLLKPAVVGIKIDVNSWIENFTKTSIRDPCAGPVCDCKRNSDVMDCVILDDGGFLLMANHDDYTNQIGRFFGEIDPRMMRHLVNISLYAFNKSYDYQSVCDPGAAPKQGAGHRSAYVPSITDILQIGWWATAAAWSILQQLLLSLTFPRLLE
T1 sequence (P54290 945-1091 partner limits assumed): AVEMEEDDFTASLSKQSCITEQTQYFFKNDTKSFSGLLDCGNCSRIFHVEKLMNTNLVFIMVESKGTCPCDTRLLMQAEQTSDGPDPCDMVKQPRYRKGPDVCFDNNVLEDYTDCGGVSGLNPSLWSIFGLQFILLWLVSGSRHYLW

CC(NCCc1ccc(O)cc1)C(O)c1ccc(O)cc1 (stereo not shown) [ritodrine]
duration of effectiveness in preterm labor (preterm labor): effective for only a few days | effect on pregnancy outcome (preterm labor): does not affect the pregnancy outcome | side-effects (preterm labor): can produce cardiovascular side-effects in some recipients

COC(=O)C1=C(C)NC(C)=C(C(=O)OCC(C)C)C1c1ccccc1[N+](=O)[O-] (stereo not shown) [nisoldipine]
block of Ca2+ current [1]: blocked

CCN(CC)CC(=O)Nc1c(C)cccc1C [lidocaine]
ICa, effect in words ([2]; 0.02 mM lidocaine, 5 min (FIG. 3A)): no detectable difference | ICa, effect in words ([2]; 0.1 mM and 0.2 mM lidocaine, 5 min (FIG. 3B, C)): slight reductions of the tail currents | Ca2+ currents, effect in words ([2]; 0.5 mM lidocaine (FIG. 2D)): reduced slightly | ICa and tail-current, effect in words ([2]; 1 mM lidocaine, 3 min (FIG. 2B)): only slightly reduced | remaining activity at 1000 µM ([2]; 0.05 h, read-out: ICa relative to control (pre-lidocaine)): 93% | remaining activity at 500 µM ([2]; 0.05 h, read-out: tail ICa remaining relative to recovery state (C)): 78% | effects on myometrial K+ or Ca2+ channels at concentrations blocking sodium channels ([2]; Ca2+ channels, uterine myocytes): no effects | effect on ICa, in words ([2]; concentrations of lidocaine up to 0.5 mM (FIG. 4)): very little effect | effect on coexisting voltage-gated calcium channels, summary in words ([2]; summary of the examples): very little effect | effects on myometrial K+ or Ca2+ channels at concentrations blocking sodium channels ([3]; K+ channels, uterine myocytes): no effects | effect on coexisting potassium channels, summary in words ([3]; summary of the examples): very little effect | effect on outward K+ current ([3]; up to 0.5 mM lidocaine, 5 min, late-pregnant uteri (FIG. 1)): insignificant effects; also recorded: rather minor | day of delivery (pregnant rats; 2 mg/kg i.m. twice daily, two rats, both): delivered on the 23rd day | duration of pregnancy, single rat (pregnant rats; 6 mg/kg i.m. twice daily, one rat, sacrificed): continued into the 26th day | term (duration of gestation) (pregnant rats; 2, 4 or 6 mg/kg i.m. twice daily from day-20, 8 rats): 23.63 ± 0.39 days | term (duration of gestation) (pregnant rats; 4 or 6 mg/kg i.m. twice daily from day-20, 6 rats): 23.83 ± 0.40 days | difference in duration of gestation versus control (pregnant rats; i.m. lidocaine, 22-day gestation): 1.5 days | lengthening of the term / prolongation of gestation (pregnant rats; i.m. lidocaine, pregnant rats): 7% | motor activities of fetuses at birth or newborn several hours after birth (fetuses and newborn rats): no discernable differences | condition of fetuses at autopsy (fetuses and newborn rats; 6 mg/kg): healthy and indistinguishable from those of control newborns, except for their larger sizes | serious side-effects on either the mother or the fetus [4]: absence of serious side-effects
